Laboratory results as given in PubChem BioAssay AID1259411 (Chemical Carcinogenesis Research Information System (CCRIS), 2018).
The source made the active and inactive calls. How the calls were made is not given here.

System: rodent carcinogenicity bioassays, tumor incidence
Assay: CCRIS carcinogenicity studies
Settings: Dose: 0
Outline: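 NCI-built, expert-reviewed records of carcinogenicity and related test outcomes (mutagenicity, tumor promotion/inhibition) compiled from published and report sources, historical span 1985-2011, not updated.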

Oc1ccccc1O
carcinogen call (Species: MOUSE, Strain/Sex: B6C3F1/FEMALE, Route: ORAL, 0.8% IN DIET FOR 96 WK (STUDY DURATION: 96 WK), Tumor Site: Type of Lesion: GLANDULAR STOMACH: ADENOMA): active; positive | carcinogen call (Species: MOUSE, Strain/Sex: B6C3F1/FEMALE, Route: ORAL, 0.8% IN POWDERED BASAL DIET FOR 96 WK (STUDY DURATION: 96 WK)): inactive; negative | carcinogen call (Species: MOUSE, Strain/Sex: B6C3F1/MALE, Route: ORAL, 0.8% IN DIET FOR 96 WK (STUDY DURATION: 96 WK), Tumor Site: Type of Lesion: GLANDULAR STOMACH: ADENOMA): active; positive | carcinogen call (Species: MOUSE, Strain/Sex: B6C3F1/MALE, Route: ORAL, 0.8% IN POWDERED BASAL DIET FOR 96 WK (STUDY DURATION: 96 WK)): inactive; negative | carcinogen call (Species: RAT, Strain/Sex: F344/FEMALE, Route: ORAL, 0.8% IN DIET FOR 104 WK (STUDY DURATION: 104 WK), Tumor Site: Type of Lesion: GLANDULAR STOMACH: ADENOMA, ADENOCARCINOMA): active; positive | carcinogen call (Species: RAT, Strain/Sex: F344/FEMALE, Route: ORAL, 0.8% IN POWDERED BASAL DIET FOR 104 WK (STUDY DURATION: 104 WK), Tumor Site: Type of Lesion: GLANDULAR STOMACH: ADENOCARCINOMA): active; positive | carcinogen call (Species: RAT, Strain/Sex: F344/FEMALE, Route: ORAL, 2% IN DIET FOR 104 WK (STUDY DURATION: 104 WK), Tumor Site: Type of Lesion: GLANDULAR STOMACH: ADENOCARCINOMA): active; positive | carcinogen call (Species: RAT, Strain/Sex: F344/MALE, Route: ORAL, 0.1, 0.2, 0.4, 0.8% IN DIET FOR 104 WK (STUDY DURATION: 104 WK), 0.1, 0.2, 0.4, 0.8% IN DIET FOR 104 WK (STUDY DURATION: 104 WK), Tumor Site: Type of Lesion: GLANDULAR STOMACH: ADENOMA, PANCREAS: ACINAR CELL ADENOMA): active; positive | carcinogen call (Species: RAT, Strain/Sex: F344/MALE, Route: ORAL, 0.16% IN DIET FOR DURATION OF STUDY (STUDY DURATION: 104 WK), Tumor Site: Type of Lesion: GLANDULAR STOMACH: ADENOMA): active; positive | carcinogen call (Species: RAT, Strain/Sex: F344/MALE, Route: ORAL, 0.8% IN DIET FOR 12, 24, 48, 72, OR 96 WK FOLLOWED BY BASAL DIET FOR 84, 72, 48, 24, AND 0 WK RESPECTIVELY (STUDY DUR, Tumor Site: Type of Lesion: STOMACH: ADENOMA, ADENOCARCINOMA): active; positive | carcinogen call (Species: RAT, Strain/Sex: F344/MALE, Route: ORAL, 0.8% IN DIET FOR 104 WK (STUDY DURATION: 104 WK), Tumor Site: Type of Lesion: GLANDULAR STOMACH: ADENOMA, ADENOCARCINOMA): active; positive | carcinogen call (Species: RAT, Strain/Sex: F344/MALE, Route: ORAL, 0.8% IN POWDERED BASAL DIET FOR 104 WK (STUDY DURATION: 104 WK), Tumor Site: Type of Lesion: GLANDULAR STOMACH: ADENOCARCINOMA): active; positive | carcinogen call (Species: RAT, Strain/Sex: F344/MALE, Route: ORAL, 2% IN DIET FOR 104 WK (STUDY DURATION: 104 WK), Tumor Site: Type of Lesion: GLANDULAR STOMACH: ADENOCARCINOMA): active; positive | carcinogen call (Species: RAT, Strain/Sex: LEWIS/MALE, Route: ORAL, 0.8% IN DIET FOR 104 WK (STUDY DURATION: 104 WK), Tumor Site: Type of Lesion: GLANDULAR STOMACH: ADENOMA, ADENOCARCINOMA): active; positive | carcinogen call (Species: RAT, Strain/Sex: SPRAGUE-DAWLEY/MALE, Route: ORAL, 0.8% IN DIET FOR 104 WK (STUDY DURATION: 104 WK), Tumor Site: Type of Lesion: GLANDULAR STOMACH: ADENOMA, ADENOCARCINOMA, FORESTOMACH: PAPILLOMA): active; positive | carcinogen call (Species: RAT, Strain/Sex: WISTAR/MALE, Route: ORAL, 0.8% IN DIET FOR 104 WK (STUDY DURATION: 104 WK), Tumor Site: Type of Lesion: GLANDULAR STOMACH: ADENOMA, ADENOCARCINOMA): active; positive | carcinogen call (Species: RAT, Strain/Sex: WKY/MALE, Route: ORAL, 0.8% IN DIET FOR 104 WK (STUDY DURATION: 104 WK), Tumor Site: Type of Lesion: GLANDULAR STOMACH: ADENOMA): active; positive

O=[N+]([O-])NC1=NCCN1Cc1ccc(Cl)nc1
carcinogen call (Species: Mouse, Strain/Sex: B6C3F1/Female (60/Group), Route: Oral, 100, 330, 1000 ppm and 0, 2000 ppm (2 related studies) of 95.3% imidacloprid in diet for 24 mo, study duration 24 mo, 100, 330, 1000 ppm and 0, 2000 ppm (2 related studies) of 95.3% imidacloprid in diet for 24 mo, study duration 24 mo): inactive; negative | carcinogen call (Species: Mouse, Strain/Sex: B6C3F1/Male (60/Group), Route: Oral, 100, 330, 1000 ppm and 0, 2000 ppm (2 related studies) of 95.3% imidacloprid in diet for 24 mo, study duration 24 mo, 100, 330, 1000 ppm and 0, 2000 ppm (2 related studies) of 95.3% imidacloprid in diet for 24 mo, study duration 24 mo): inactive; negative | carcinogen call (Species: Rat, Strain/Sex: Wistar/Female (60/Group), Route: Oral, 100, 300, 900 ppm and 0;1800 ppm (2 related studies) of 94.3% imidacloprid in diet for 24 mo, study duration 24 mo, 100, 300, 900 ppm and 0;1800 ppm (2 related studies) of 94.3% imidacloprid in diet for 24 mo, study duration 24 mo): inactive; negative | carcinogen call (Species: Rat, Strain/Sex: Wistar/Male (60/Group), Route: Oral, 100, 300, 900 ppm and 0, 1800 ppm (2 related studies) of 94.3% imidacloprid in diet for 24 mo, study duration 24 mo, 100, 300, 900 ppm and 0, 1800 ppm (2 related studies) of 94.3% imidacloprid in diet for 24 mo, study duration 24 mo, Tumor Site: Type of Lesion: Liver: Cholangiocellular carcinoma (2/60 at 1800 ppm vs 0/60 all other groups)): active; positive

Oc1c(Cl)cc(Cl)cc1Cl
carcinogen call (Species: MOUSE, Strain/Sex: B6C3F1/FEMALE, Route: ORAL, 5214, 10428 PPM IN DIET, 5214, 10428 PPM IN DIET, Tumor Site: Type of Lesion: LIVER: HEPATOCELLULAR CARCINOMA OR ADENOMA): active; positive | carcinogen call (Species: MOUSE, Strain/Sex: B6C3F1/MALE, Route: ORAL, 5000, 10000 PPM IN DIET, 5000, 10000 PPM IN DIET, Tumor Site: Type of Lesion: LIVER: HEPATOCELLULAR CARCINOMA OR ADENOMA): active; positive | carcinogen call (Species: RAT, Strain/Sex: F344/FEMALE, Route: ORAL, 5000, 10000 PPM IN DIET, 5000, 10000 PPM IN DIET): inactive; negative | carcinogen call (Species: RAT, Strain/Sex: F344/MALE, Route: ORAL, 5000, 10000 PPM IN DIET, 5000, 10000 PPM IN DIET, Tumor Site: Type of Lesion: HEMATOPOIETIC SYSTEM (LEUKEMIA): MONOCYTIC LEUKEMIA, LYMPHATIC SYSTEM: LYMPHOMA): active; positive

CCCCNC(=O)OCC#CI
carcinogen call (Species: Mouse, Strain/Sex: CD-1/Female (50/Group), Route: Oral, 20, 50, 150 mg/kg/day of 97% 3-iodo-2-propynyl butyl carbamate in diet for 78 wk, study duration 78 wk, 20, 50, 150 mg/kg/day of 97% 3-iodo-2-propynyl butyl carbamate in diet for 78 wk, study duration 78 wk): inactive; negative | carcinogen call (Species: Mouse, Strain/Sex: CD-1/Male (50/Group), Route: Oral, 20, 50, 150 mg/kg/day of 97% 3-iodo-2-propynyl butyl carbamate in diet for 78 wk, study duration 78 wk, 20, 50, 150 mg/kg/day of 97% 3-iodo-2-propynyl butyl carbamate in diet for 78 wk, study duration 78 wk): inactive; negative | carcinogen call (Species: Rat, Strain/Sex: Sprague-Dawley/Female (50/group), Route: Oral, 20, 40, 80 mg/kg/day of 97% 3-iodo-2-propynyl butyl carbamate in diet for 104 wk, study duration 104 wk, 20, 40, 80 mg/kg/day of 97% 3-iodo-2-propynyl butyl carbamate in diet for 104 wk, study duration 104 wk): inactive; negative | carcinogen call (Species: Rat, Strain/Sex: Sprague-Dawley/Male (50/group), Route: Oral, 20, 40, 80 mg/kg/day of 97% 3-iodo-2-propynyl butyl carbamate in diet for 104 wk, study duration 104 wk, 20, 40, 80 mg/kg/day of 97% 3-iodo-2-propynyl butyl carbamate in diet for 104 wk, study duration 104 wk): inactive; negative

C[N+](C)(C)CCCl
carcinogen call (Species: MOUSE, Strain/Sex: B6C3F1/FEMALE, Route: ORAL, 500, 2000 PPM IN DIET, 500, 2000 PPM IN DIET): inactive; negative | carcinogen call (Species: MOUSE, Strain/Sex: B6C3F1/MALE, Route: ORAL, 500, 2000 PPM IN DIET, 500, 2000 PPM IN DIET): inactive; negative | carcinogen call (Species: RAT, Strain/Sex: F344/FEMALE, Route: ORAL, 1500, 3000 PPM IN DIET, 1500, 3000 PPM IN DIET): inactive; negative | carcinogen call (Species: RAT, Strain/Sex: F344/MALE, Route: ORAL, 1500, 3000 PPM IN DIET, 1500, 3000 PPM IN DIET): inactive; negative

Nc1cnn([C@@H]2O[C@H](CO)[C@@H](O)[C@H]2O)c(=O)n1
carcinogen call (Species: RAT, Strain/Sex: F344/MALE, Route: INTRAPERITONEAL, 2.5 MG/KG IN 0.9% SALINE 3/WK FOR 1 YR (STUDY DURATION: 1 YR)): inactive; negative
